Results on 2 molecules are retold here after US20220387633A1, “SMART PEPTIDES AND TRANSFORMABLE NANOPARTICLES FOR CANCER IMMUNOTHERAPY” (The Regents of the University of California, priority 2019, published 2022).

Bridge positions count the residues as written; N and C are the ends. Square brackets hold non-standard residues; d marks the D form. Ends that are not written are not given here. Phe(3,5-F2) = N[C@@H](Cc1cc(F)cc(F)c1)C(=O)O; Hyp = O=C(O)[C@@H]1C[C@@H](O)CN1; BP = bis-pyrene

In test [1] the test system is 4T1 tumour cells. The experiment in a line: Flow cytometry binding of LXY30 to 4T1 cells. Also noted: species or system murine. To be noted: 1 μM biotinylated LXY30. As to the method:
Experiments were repeated three times. 3×10^5 cells incubated with 1 μM biotinylated LXY30 for 30 min on ice, after washing with PBS followed by incubation with 1:500 streptavidin-PE (1 mg/mL) for 30 min, then run with flow cytometry.
For orientation: Flow cytometry measures light scatter and fluorescence of single cells or particles in a stream.

Test [2] has as its target T1, HER2 receptor on the surface of HER2+ breast cancer cells (MCF-7/C6, SKBR-3, BT474) (human, UniProt P04626 23-1255).
T1 construct: whole, on cells; Endogenous HER2 on cell lines; MCF-7/C6 is derived from the human breast cancer line MCF-7 by fractionated irradiation; also called cell surface HER2; HER2 receptors of MCF-7/C6 cells
The experiment in a line: confocal microscopy on MCF-7/C6 cells, 8 h.

In the case of “cdG-Phe(3,5-diF)-G-Hyp-NcR ([dC][dD]G[Phe(3,5-F2)]G[Hyp]N[dC]R; also: cyclic peptide, ring type and places not given here) [LXY30]”, the “binding to 4T1 tumour cells” value in test [1] was “did bind”.

B1: NPs2, nanoparticles self-assembled from transformable peptide monomer 2 (TPM2′) BP-GGAAK-YCDGFYACYMDV (peptide)
peptide: {BP}-GGAAKYCDGFYACYMDV
modifications: disulfide 7-13 (inferred)
notes: Negative control with the HER2 ligand but without the beta-sheet forming peptide; Tested as nanoparticles of about 30 nm
Consider B1, for which, in test [2], the binding result is “binds”.
